Laboratory results taken from paper PMC4744035, “In Vivo, In Vitro, and In Silico Characterization of Peptoids as Antimicrobial Agents” (PLoS ONE, 2016).
Converted amounts (≈) assume the structure as drawn. Square brackets hold non-standard residues; d marks the D form. Peptide text beside a SMILES is read from it. Nspe = C[C@H](NCC(=O)O)c1ccccc1; Nlys = NCCCCNCC(=O)O

Key:
erythrocytes = experiment: Hemolytic activity (HD10/HD50); type: cell-based
Source text: Table 1 Characteristics of antimicrobial peptoids, screened for activity against B. subtilis and E. coli bacterial strains. | column: HD10 / HD50

NIH 3T3 cells = experiment: Metabolic activity, MTS assay; type: cell-based, mouse
Description: NIH 3T3 mouse fibroblast cells were cultured in complete Dulbecco’s Modified Eagle’s Media. A peptoid solution plate (100 µL per well) was prepared by serial dilution of aqueous peptoid stock solutions in Hank’s balanced salt solution. A day-old cell monolayer was washed thoroughly with Hank’s balanced salt solution and replenished with 100 µL Hank’s balanced salt solution per well. Peptoid solutions were transferred onto the day-old cell monolayers, which contained approximately 5000 cells per well. […] The average of six replicate trials is reported.

P. aeruginosa 213 (MDR) = experiment: microbe, parasite or virus in culture; settings: 213 (MDR)
Description: (§1) The MICs of test agents were measured using a modified broth micro-dilution method in Difco Mueller Hinton medium, on a panel of bacterial pathogens that were both susceptible and resistant to common antibiotics (S1 File). Briefly, serial dilutions were performed in 0.01% acetic acid containing 0.2% bovine serum albumin at 10-fold the desired final concentration. Ten μL of the 10-fold concentrated test reagents were added to each well of a 96-well polypropylene microtitre plate containing 90 μL of Mueller Hinton media per well. Bacteria were added to the plate from an overnight culture at a final concentration of 2–7 x 10^5 CFU/mL and incubated overnight at 37°C. The MIC is defined as the concentration at which no growth was observed.
(§2) Screening of peptoid antimicrobial activity against a panel of multidrug resistant superbugs was done according to the protocol described in the manuscript. The bacterial strains used in this panel included; P. aeruginosa PAO1 strain H103 [1], P. maltophilia ATCC#13637, S. aureus ATCC#25923 [1], E. faecalis ATCC#29212 [2], and E. cloacae 218R, constitutively expressing Class C chromosomal β-lactamase, were from the Hancock lab strains collection. An MRSA clinical isolate was kindly provided by Anthony Chow (Vancouver General Hospital, Vancouver, Canada). Two Klebsiella pneumoniae and two E. coli clinical isolates expressing extended spectrum β-lactamases (ESBL) were kindly provided by George Zhanel (Health Sciences Centre, Winnipeg, Canada). Vancomycin-resistant clinical isolates of Enterococcus faecalis and E. faecium were obtained from Ana M. Paccagnella (BC Centre for Disease Control, Vancouver, Canada). Three clinical isolates (#9, #198 and #213) of multi-drug resistant P. aeruginosa, were kindly provided by Carlos Kiffer (University of São Paulo, Brazil). […] Three P. aeruginosa clinical isolates of the Liverpool epidemic strain (LES) (H1027, H1030 and LES400) were all kindly provided by Craig Winstanley (University of Liverpool, UK). […] All tested bacterial strains were categorized as biohazard level 2 pathogens.

E. faecalis W61950 (VRE) = experiment: microbe, parasite or virus in culture; settings: W61950 (VRE)
Description: as §1, §2

E. coli 64771 (ESBL) = experiment: microbe, parasite or virus in culture; settings: 64771 (ESBL)
Description: as §1, §2

[1] = tested on: P. aeruginosa LES400 (MDR); experiment: microbe, parasite or virus in culture; settings: LES400 (MDR)
Description: as §1, §2

E. faecalis ATCC29212 = experiment: microbe, parasite or virus in culture; settings: ATCC29212
Description: as §1, §2

E. faecalis F43559 (VRE) = experiment: microbe, parasite or virus in culture; settings: F43559 (VRE)
Description: as §1, §2

[2] = tested on: P. aeruginosa H1030 (MDR); experiment: microbe, parasite or virus in culture; settings: P. aeruginosa H1030 (MDR)
Description: as §1, §2

E. faecium mic80 (VRE) = experiment: microbe, parasite or virus in culture; settings: mic80 (VRE)
Description: as §1, §2

[3] = tested on: K. pneumonia 61962 (ESBL); experiment: microbe, parasite or virus in culture
Description: as §1, §2

S. aureus C623 (MRSA) = experiment: microbe, parasite or virus in culture; settings: C623
Description: as §1, §2

E. faecium T62764 (VRE) = experiment: microbe, parasite or virus in culture; settings: T62764 (VRE)
Description: as §1, §2

[4] = tested on: P. aeruginosa H103 (wild type); experiment: microbe, parasite or virus in culture; settings: H103 (wild type)
Description: as §1, §2

[5] = tested on: P. aeruginosa H1027 (MDR); experiment: microbe, parasite or virus in culture; settings: H1027 (MDR)
Description: as §1, §2

[6] = tested on: K. pneumonia 63575 (ESBL); experiment: microbe, parasite or virus in culture
Description: as §1, §2

P. maltophilia ATCC13637 = experiment: microbe, parasite or virus in culture; settings: ATCC13637
Description: as §1, §2

[7] = tested on: E. cloacae 218R Class C β-lactamase; experiment: microbe, parasite or virus in culture; settings: 218R Class C β-lactamase
Description: as §1, §2

P. aeruginosa 198 (MDR) = experiment: microbe, parasite or virus in culture; settings: 198 (MDR)
Description: as §1, §2

P. aeruginosa 9 (MDR) = experiment: microbe, parasite or virus in culture; settings: 9 (MDR)
Description: as §1, §2

E. coli 63103 (ESBL) = experiment: microbe, parasite or virus in culture; settings: 63103 (ESBL)
Description: as §1, §2

S. aureus ATCC25923 = experiment: microbe, parasite or virus in culture; settings: ATCC25923
Description: as §1, §2

E. coli ATCC 35218 = type: cell-based
Description: MICs against B. subtilis and E. coli screening bacterial strains were determined using serial dilution in 96-well microtiter plates in accordance with CLSI M7-A6 protocols. Briefly, peptoid solution in cation-adjusted Mueller-Hinton broth was prepared by 2:1 serial dilution with a total volume of 50 µL per well. In experimental wells, 50 µL of bacterial inoculums (1 x 10^6 CFU/mL) were added to the peptoid solutions. Positive controls consisted of 50 µL inoculums added to 50 µL cation-adjusted Mueller-Hinton broth containing no peptoid, while negative controls contained only cation-adjusted Mueller-Hinton broth. […] Experiments were reproducible among three independent replicates, each consisting of two parallel trials.

SMILES	HD10 (hemolytic activity) (erythrocytes)	HD50 (hemolytic activity) (erythrocytes)	ID50 (inhibitory dose, metabolic activity) (NIH 3T3 cells)	MIC (P. aeruginosa 213 (MDR))	MIC (E. faecalis W61950 (VRE))	MIC (E. coli 64771 (ESBL))	MIC [1]	MIC (E. faecalis ATCC29212)	MIC (E. faecalis F43559 (VRE))	MIC (E. faecium mic80 (VRE))	MIC [3]	MIC (S. aureus C623 (MRSA))	MIC (E. faecium T62764 (VRE))	MIC [4]	MIC [5]	MIC [6]	MIC (P. maltophilia ATCC13637)	MIC (P. aeruginosa 198 (MDR))	MIC (E. coli 63103 (ESBL))	MIC E. coli (E. coli ATCC 35218)	also measured
C[C@@H](c1ccccc1)N(CC(N)=O)C(=O)CN(CCCCN)C(=O)CN(CCCCN)C(=O)CN(C(=O)CN(C(=O)CN(CCCCN)C(=O)CN(C(=O)CN(CCCCN)C(=O)CN(CCCCN)C(=O)CN(C(=O)CN(C(=O)CNCCCCN)[C@@H](C)c1ccccc1)[C@@H](C)c1ccccc1)[C@@H](C)c1ccccc1)[C@@H](C)c1ccccc1)[C@@H](C)c1ccccc1 [1-NLys5,11, H-(NLys-Nspe-Nspe-NLys-NLys-Nspe)2-NH2] (H-[Nlys][Nspe][Nspe][Nlys][Nlys][Nspe][Nlys][Nspe][Nspe][Nlys][Nlys][Nspe]-NH2)	>100 / >100	>100 / >100	85 µM	8 µg/mL (≈ 4.56 µM)	256 µg/mL (≈ 146 µM)	32 µg/mL (≈ 18.3 µM)	8 µg/mL (≈ 4.56 µM)	256 µg/mL (≈ 146 µM)	256 µg/mL (≈ 146 µM)	16 µg/mL (≈ 9.13 µM)	256 µg/mL (≈ 146 µM)	64 µg/mL (≈ 36.5 µM)	8 µg/mL (≈ 4.56 µM)	2 µg/mL (≈ 1.14 µM)	0.13 µg/mL (≈ 0.0741 µM)	128 µg/mL (≈ 73 µM)	0.5 µg/mL (≈ 0.285 µM)	8 µg/mL (≈ 4.56 µM)	128 µg/mL (≈ 73 µM)	50 µM (≈ 87.7 µg/mL)	MIC [2]: 64 µg/mL (≈ 36.5 µM); MIC [7]: 32 µg/mL (≈ 18.3 µM); MIC (P. aeruginosa 9 (MDR)): 64 µg/mL (≈ 36.5 µM); MIC (S. aureus ATCC25923): 64 µg/mL (≈ 36.5 µM)
C[C@H](NCC(=O)N(CCCCN)CC(=O)N(CC(=O)N(CCCCN)CC(=O)N(CCCCN)CC(=O)N(CC(=O)N(CC(=O)N(CCCCN)CC(=O)N(CC(=O)N(CCCCN)CC(=O)N(CCCCN)CC(=O)N(CC(N)=O)[C@@H](C)c1ccccc1)[C@@H](C)c1ccccc1)[C@@H](C)c1ccccc1)[C@@H](C)c1ccccc1)[C@@H](C)c1ccccc1)c1ccccc1 [1B-NLys4,10, H-(Nspe-NLys-Nspe-NLys-NLys-Nspe)2-NH2] (H-[Nspe][Nlys][Nspe][Nlys][Nlys][Nspe][Nspe][Nlys][Nspe][Nlys][Nlys][Nspe]-NH2)	>200 / >200	>200 / >200	83 µM	16 µg/mL (≈ 9.13 µM)	256 µg/mL (≈ 146 µM)	32 µg/mL (≈ 18.3 µM)	16 µg/mL (≈ 9.13 µM)	256 µg/mL (≈ 146 µM)	256 µg/mL (≈ 146 µM)	32 µg/mL (≈ 18.3 µM)	256 µg/mL (≈ 146 µM)	256 µg/mL (≈ 146 µM)	16 µg/mL (≈ 9.13 µM)	4 µg/mL (≈ 2.28 µM)	0.25 µg/mL (≈ 0.143 µM)	128 µg/mL (≈ 73 µM)	0.25 µg/mL (≈ 0.143 µM)	32 µg/mL (≈ 18.3 µM)	128 µg/mL (≈ 73 µM)	50 µM (≈ 87.7 µg/mL)	MIC [7]: 32 µg/mL (≈ 18.3 µM); MIC (P. aeruginosa 9 (MDR)): 128 µg/mL (≈ 73 µM); MIC (S. aureus ATCC25923): 256 µg/mL (≈ 146 µM)
C[C@H](NCC(=O)N(CCCCN)CC(=O)N(CC(=O)N(CCCCN)CC(=O)N(CCCCN)CC(=O)N(CCCCN)CC(=O)N(CC(=O)N(CCCCN)CC(=O)N(CC(=O)N(CCCCN)CC(=O)N(CCCCN)CC(=O)N(CC(=O)N(CC(=O)N(CCCCN)CC(=O)N(CC(N)=O)[C@@H](C)c1ccccc1)[C@@H](C)c1ccccc1)[C@@H](C)c1ccccc1)[C@@H](C)c1ccccc1)[C@@H](C)c1ccccc1)[C@@H](C)c1ccccc1)c1ccccc1 [1B15mer-NLys4,6,10, H-(Nspe-NLys)2-NLys2-(Nspe-NLys)2-NLys-Nspe2-NLys-Nspe-NH2] (H-[Nspe][Nlys][Nspe][Nlys][Nlys][Nlys][Nspe][Nlys][Nspe][Nlys][Nlys][Nspe][Nspe][Nlys][Nspe]-NH2)	>200 / >200	>200 / >200	40 µM																		
C[C@H](NCC(=O)N(CCCCN)CC(=O)N(CC(=O)N(CCCCN)CC(=O)N(CCCCN)CC(=O)N(CC(=O)N(CC(=O)N(CCCCN)CC(=O)N(CC(=O)N(CCCCN)CC(=O)N(CCCCN)CC(=O)N(CC(=O)N(CC(=O)N(CCCCN)CC(=O)N(CC(N)=O)[C@@H](C)c1ccccc1)[C@@H](C)c1ccccc1)[C@@H](C)c1ccccc1)[C@@H](C)c1ccccc1)[C@@H](C)c1ccccc1)[C@@H](C)c1ccccc1)[C@@H](C)c1ccccc1)c1ccccc1 [1B15mer-NLys4,10, H-(Nspe-NLys-Nspe-NLys-NLys-Nspe)2-Nspe-NLys-Nspe-NH2] (H-[Nspe][Nlys][Nspe][Nlys][Nlys][Nspe][Nspe][Nlys][Nspe][Nlys][Nlys][Nspe][Nspe][Nlys][Nspe]-NH2)	>200 / >200	>200 / >200	16 µM		128 µg/mL (≈ 58.1 µM)				256 µg/mL (≈ 116 µM)	32 µg/mL (≈ 14.5 µM)	256 µg/mL (≈ 116 µM)		4 µg/mL (≈ 1.81 µM)					16 µg/mL (≈ 7.26 µM)	256 µg/mL (≈ 116 µM)		
C[C@@H](c1ccccc1)N(CC(N)=O)C(=O)CN(CCCCN)C(=O)CN(C(=O)CN(C(=O)CN(CCCCN)C(=O)CN(C(=O)CN(C(=O)CN(CCCCN)C(=O)CN(C(=O)CN(C(=O)CNCCCCN)[C@@H](C)c1ccccc1)[C@@H](C)c1ccccc1)[C@@H](C)c1ccccc1)[C@@H](C)c1ccccc1)[C@@H](C)c1ccccc1)[C@@H](C)c1ccccc1 [Peptoid 1_11mer, H-(NLys-Nspe-Nspe)3-NLys-Nspe-NH2] (H-[Nlys][Nspe][Nspe][Nlys][Nspe][Nspe][Nlys][Nspe][Nspe][Nlys][Nspe]-NH2)	103	> 200	11 µM																	6.3 µM (≈ 10.4 µg/mL)	
